# Data published in patent publication US20250032624A1, “SMALL MOLECULE DEGRADATION METHODS FOR TREATING ALS/FTD” (University of Florida Research Foundation, Incorporated, priority 2021, published 2025).
# What was measured:
# [1] = system: r(G4C2)^exp-containing intron 1 of C9orf72; test: C9orf72 transcript RT-qPCR in c9ALS/FTD patient-derived LCLs; assay type: cell-based, human; details: 500 nM
# Experimental: Measuring Levels of C9orf72 and C9orf72 Variants by RT-qPCR. LCLs and iPSCs were seeded in 6-well plates (˜10^6 cells in 2 mL of Basal medium) and incubated overnight at 37° C. with 5% CO2. LCLs were then treated with compound for 4 days without media changes; patient-derived iPSCs were seeded at ˜80% confluency and treated, as described above. Treatment with either a G4C2-ASO or Control-ASO (100 nM) was used as a control. ASO transfection was achieved using Lipofectamine RNAiMax (Life Technologies), following the manufacturer's protocol. After 4 days of treatment (with either compound or ASO), total RNA was extracted using the Quick-RNA Miniprep Kit (Zymo Research). RNA was quantified via Nanodrop and ˜1 μg of total RNA was reverse transcribed using qScript (Quantbio), according to the manufacturer's guidelines. RT-qPCR was performed on a QuantStudio™ Real-Time PCR Instrument (Applied Biosystems) using Power SYBR Green Master Mix (Applied Biosystems). Expression levels of mRNAs were normalized to GAPDH. See Table 2 for a list of primers used.
# [2] = system: induced pluripotent stem cells (iPSCs); test: Cell viability in iPSCs; assay type: cell-based, human; details: doses up to 1 μM
# Experimental: Patient-derived LCLs were seeded overnight in 96-well plates (˜10^4 cells/well) and treated with compounds for 96 hours. Cell viability was measured using the CellTiter-Fluor™ Cell Viability Assay (Promega) per the manufacturer's protocol. iPSC cell viability was measured by seeding cells in Matrigel-coated 6-well plates with Basal medium (iPSC maintenance described above). After overnight incubation, the medium was replaced with fresh medium containing compounds diluted in 0.1% DMSO. Cells were treated with compound for 96 hours. Cell viability was measured using the AlamarBlue™ Cell Viability Reagent (DAL1025, Thermo Fisher Scientific) per the manufacturer's protocol. iPSN cell viability was measured by […]
# [3] = system: C9orf72 and transcriptome; test: RNA-seq in iPSCs from healthy donors; assay type: cell-based, human; details: healthy donor iPSCs
# Experimental: Total RNA integrity was confirmed by Agilent 2100 Bioanalyzer RNA nano chip, and the quantity was measured by Qubit 2.0 Fluorometer (Invitrogen). The library preparation was performed using NEBNext Ultra II Directional RNA kit (NEB, E7760) in combination with NEBNext rRNA depletion module (NEB, E6310) and RNA fragmentation module (NEB, E6150S), following manufacturer's recommendations. Briefly, a total of 200 ng RNA was first processed with depleted of ribosomal RNA, and then randomly fragmented to achieve range between 150 to 300 nucleotides. The fragmented RNAs were random primed for the first-strand synthesis, and the second strand was synthesized with dUTPs. The strand information is thus preserved by using USER enzyme (Uracil-specific excision reagent). The cDNA was PCR amplified and pooled equimolar to load onto the NextSeq 500 v2.5 flow cell and sequenced with 2×40 bp paired-end method. The output fastq files were aligned using STAR 3^5. The read counts of specific regions were extracted using samtools.^36 The global differential gene expression analysis was performed using featureCounts and Deseq2.^37,38
# [4] = system: r(G4C2)^exp-containing foci; test: RNA FISH of r(G4C2)exp-containing nuclear foci in cortex of +/+PWR500 mice; assay type: in vivo, mouse; details: +/+PWR500 mice vs vehicle
# Experimental: A total of 20 age- and gender-matched mice (12 +/+PWR500 [5 Male and 7 Female] and 8 WT [4 Male and 4 Female]), ranging from 18-21 weeks old were used in therapeutic efficacy studies (Table 4). Mice were treated with a single bolus injection of 33 nmol of compound 2 formulated in 1% (v/v) DMSO/99% water, administered by an intracerebroventricular injection (ICV). Three weeks post injection, mice were euthanized, and tissue was harvested for study.
# Postmortem brain tissue was excised and sliced along the sagittal plane at the midline. The right hemisphere was flash frozen with Optimal Cutting Temperature (OCT) compound in 2-methylbutane in liquid nitrogen. Frozen tissue was sectioned ([…]) using a cryostat and slides were stained as previously described.^39 Briefly, frozen sections were fixed in 4% paraformaldehyde in 1×DPBS for 20 minutes then incubated in ice cold 70% ethanol at 4° C. for 30 minutes. Once fixed, slides were incubated for 10 minutes in 40% formamide in 2×SSC Buffer at room temperature. Slides were blocked in 1× Hybridization Buffer (40% formamide, 2×SSC Buffer, […] BSA, 100 mg/mL dextran sulfate, 250 μg/mL tRNA, and 2 mM vanadyl sulfate) for 30 minutes at 55° C. Slides were then incubated for 3 hours at 55° C. with 200 ng/mL of FISH probe (Table 1) in 1× Hybridization Buffer. […]
structure (smiles),measurement,setting,value
CCOC(=O)C1=C(Nc2ccccc2)S/C(=C\c2ccc(OCCOCCOCCOCCNC(=O)CCCOc3ccc4c(c3)c3cc5c(C(=O)N[C@H](C)CN(C)C)nccc5c(C)c3n4C)c(O)c2)C1=O [ALS Compound Formula I],reduction in C9orf72 intron 1 abundance,[1],~50%
same,toxicity,[2],no significant toxicity
same,C9orf72 read count,[3],no effect
same,intron 1:exon 2 ratio,[3],no effect
same,off-target effects transcriptome-wide,[3],minimal off-target effects
same,number of r(G4C2)^exp-containing foci in the nuclei of cortex neurons,[4],significantly reduced
